Values after ≈ are worked out from the molar mass of the structure shown.
Key:
Staphylococcus aureus [1] = experiment: Antimicrobial activity against Staphylococcus aureus USA300 incubated overnight under aerobic condition by microbroth dilution method; format: functional
Bacillus subtilis = experiment: Antimicrobial activity against Bacillus subtilis ATCC 23857 incubated overnight under aerobic condition by microbroth dilution method; format: functional
Staphylococcus aureus [2] = experiment: Antimicrobial activity against Staphylococcus aureus ATCC 29213 incubated overnight under aerobic condition by microbroth dilution method; format: functional
Streptococcus pyogenes = experiment: Antimicrobial activity against Streptococcus pyogenes ATCC 700294 incubated overnight under aerobic condition by microbroth dilution method; format: functional
Streptococcus pneumoniae = experiment: Antimicrobial activity against Streptococcus pneumoniae R6 incubated overnight under aerobic condition by microbroth dilution method; format: functional
Enterococcus faecalis = experiment: Antimicrobial activity against Enterococcus faecalis ATCC 33186 incubated overnight under aerobic condition by microbroth dilution method; format: functional
Vero = experiment: Cytotoxicity in African green monkey Vero cells assessed as reduction in cell viability incubated for 72 hrs by cell-titer-Glo luminescent cell viability assay; format: cell-based; details: Chlorocebus sabaeus
[3] = molecular target: T1, ATP-dependent Clp protease proteolytic subunit (Staphylococcus aureus (strain NCTC 8325), UniProt Q2G036); experiment: Displacement of ADEP2591 from Staphylococcus aureus ClpP expressed in Escherichia coli BL21 (DE3) incubated for 120 mins by fluorescence polarization assay
T1 sequence (Q2G036 whole entry): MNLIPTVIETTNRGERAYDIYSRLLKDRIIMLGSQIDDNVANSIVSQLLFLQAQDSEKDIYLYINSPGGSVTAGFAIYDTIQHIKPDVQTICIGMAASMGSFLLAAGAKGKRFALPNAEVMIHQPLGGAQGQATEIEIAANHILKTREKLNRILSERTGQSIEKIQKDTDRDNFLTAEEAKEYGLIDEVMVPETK

Staphylococcus aureus [4] = experiment: Antimicrobial activity against Staphylococcus aureus NRS70 incubated overnight under aerobic condition by microbroth dilution method; format: functional
Staphylococcus aureus [5] = experiment: Antimicrobial activity against Staphylococcus aureus USA300 deficient in ClpP incubated overnight under aerobic condition by microbroth dilution method; format: functional

SMILES	MIC (Staphylococcus aureus [1]) [µM]	MIC (Staphylococcus aureus [2]) [µM]	MIC (Streptococcus pyogenes) [µM]	MIC (Staphylococcus aureus [5]) [µM]	also measured
Cc1ccc(NC(=O)N[C@@H](Cc2cc(F)cc(F)c2)C(=O)N[C@@H]2C(=O)N3CCC[C@H]3C(=O)N(C)[C@@H]([C@H](C)O)C(=O)N[C@@H](C)C(=O)N3C[C@H](C)C[C@H]3C(=O)O[C@H]2C)cc1	0.1 (≈ 0.0812 µg/mL)	0.05 (≈ 0.0406 µg/mL)	0.1 (≈ 0.0812 µg/mL)		MIC (Bacillus subtilis): 0.05 µM (≈ 0.0406 µg/mL); MIC (Streptococcus pneumoniae): 0.02 µM (≈ 0.0162 µg/mL)
CN(C)[C@@H]1C(O)=C(C(N)=O)C(=O)[C@@]2(O)C(O)=C3C(=O)c4c(O)cccc4[C@@](C)(O)[C@H]3C[C@@H]12 [TETRACYCLINE]					MIC (Bacillus subtilis): 1.6 µM (≈ 0.711 µg/mL); MIC (Enterococcus faecalis): 0.05 µM (≈ 0.0222 µg/mL)
C[C@H]1C[C@H]2C(=O)O[C@@H](C)[C@H](NC(=O)[C@H](Cc3cc(F)cc(F)c3)NC(=O)Nc3ccc(C(F)(F)F)cc3)C(=O)N3CCC[C@H]3C(=O)N3CCCC[C@H]3C(=O)N[C@@H](C)C(=O)N2C1			1.5 (≈ 1.29 µg/mL)		
C[C@H]1C[C@H]2C(=O)O[C@@H](C)[C@H](NC(=O)[C@H](Cc3cc(F)cc(F)c3)NC(=O)Nc3ccc4c(c3)OCO4)C(=O)N3CCC[C@H]3C(=O)N3CCCC[C@H]3C(=O)N[C@@H](C)C(=O)N2C1	0.8 (≈ 0.67 µg/mL)	0.8 (≈ 0.67 µg/mL)			
C[C@@H]1C[C@H]2C(=O)O[C@@H](C)[C@H](NC(=O)[C@H](Cc3cc(F)cc(F)c3)NC(=O)Nc3ccc(OC(F)(F)F)cc3)C(=O)N3CCC[C@H]3C(=O)N(C)[C@@H]([C@H](C)O)C(=O)N[C@@H](C)C(=O)N2C1					IC50 (Vero): 23.9 µM; IC50 [3]: 7.53 µM
CCc1cccc(NC(=O)N[C@@H](Cc2ccccc2)C(=O)N[C@H]2COC(=O)[C@@H]3C[C@@H](C)CN3C(=O)[C@H](C)NC(=O)[C@@H]3CCCCN3C(=O)[C@@H]3CCCN3C2=O)c1		0.6 (≈ 0.463 µg/mL)			MIC (Staphylococcus aureus [4]): 0.6 µM (≈ 0.463 µg/mL)
Cc1ccc(NC(=O)N[C@@H](Cc2cc(F)cc(F)c2)C(=O)N[C@@H]2C(=O)N3CCC[C@H]3C(=O)N3CCCC[C@H]3C(=O)N[C@@H](C)C(=O)N3C[C@@H](C)C[C@H]3C(=O)O[C@H]2C)cc1			0.4 (≈ 0.323 µg/mL)	100 (≈ 80.8 µg/mL)	
Cc1ccc(NC(=O)N[C@@H](Cc2cc(F)cc(F)c2)C(=O)N[C@@H]2C(=O)N3CCC[C@H]3C(=O)N3CCCC[C@H]3C(=O)N[C@@H](C)C(=O)N3C[C@H](C)C[C@H]3C(=O)O[C@H]2C)cc1	0.05 (≈ 0.0404 µg/mL)	0.05 (≈ 0.0404 µg/mL)	0.2 (≈ 0.162 µg/mL)	100 (≈ 80.8 µg/mL)	IC50 (Vero): 40 µM; MIC (Streptococcus pneumoniae): 0.05 µM (≈ 0.0404 µg/mL)
CCc1ccc(NC(=O)N[C@@H](Cc2cc(F)cc(F)c2)C(=O)N[C@@H]2C(=O)N3CCC[C@H]3C(=O)N(C)[C@@H](C)C(=O)N[C@@H](C)C(=O)N3CCC[C@H]3C(=O)O[C@H]2C)cc1	0.2 (≈ 0.156 µg/mL)	0.2 (≈ 0.156 µg/mL)		100 (≈ 78.2 µg/mL)	MIC (Staphylococcus aureus [4]): 0.2 µM (≈ 0.156 µg/mL)
Cc1ccc(NC(=O)N[C@@H](Cc2cc(F)cc(F)c2)C(=O)N[C@H]2COC(=O)[C@@H]3C[C@H](C)CN3C(=O)[C@H](C)NC(=O)[C@@H]3CCCCN3C(=O)[C@@H]3CCCN3C2=O)cc1				100 (≈ 79.4 µg/mL)	
C[C@@H]1C[C@H]2C(=O)OC[C@H](NC(=O)[C@H](Cc3ccccc3)NC(=O)Nc3ccc(OC(F)(F)F)cc3)C(=O)N3CCC[C@H]3C(=O)N3CCCC[C@H]3C(=O)N[C@@H](C)C(=O)N2C1			0.1 (≈ 0.0828 µg/mL)		
C[C@@H]1NC(=O)[C@@H]2CCCCN2C(=O)[C@@H]2CCCN2C(=O)[C@@H](NC(=O)[C@H](Cc2cc(F)cc(F)c2)NC(=O)Nc2ccc3c(c2)OCO3)[C@H](C)OC(=O)[C@@H]2CCCN2C1=O	3.1 (≈ 2.55 µg/mL)	3.1 (≈ 2.55 µg/mL)	< 0.1		MIC (Staphylococcus aureus [4]): 3.1 µM (≈ 2.55 µg/mL)
CCc1ccc(NC(=O)N[C@@H](Cc2cc(F)cc(F)c2)C(=O)N[C@@H]2C(=O)N3CCC[C@H]3C(=O)N(C)[C@@H](C)C(=O)N[C@@H](C)C(=O)N3C[C@@H](C)C[C@H]3C(=O)O[C@H]2C)cc1	0.1 (≈ 0.0796 µg/mL)	0.1 (≈ 0.0796 µg/mL)			
NC[C@H]1O[C@H](O[C@H]2[C@H](O)[C@@H](O[C@H]3O[C@H](CO)[C@@H](O)[C@H](N)[C@H]3O)[C@H](N)C[C@@H]2N)[C@H](O)[C@@H](O)[C@@H]1O [KANAMYCIN]		1.56 (≈ 0.756 µg/mL)	12.5 (≈ 6.06 µg/mL)		MIC (Bacillus subtilis): 0.1 µM (≈ 0.0485 µg/mL)
Cc1ccc(NC(=O)N[C@@H](Cc2ccccc2)C(=O)N[C@H]2COC(=O)[C@@H]3C[C@H](C)CN3C(=O)[C@H](C)NC(=O)[C@@H]3CCCCN3C(=O)[C@@H]3CCCN3C2=O)cc1				> 200	
C[C@@H]1C[C@H]2C(=O)O[C@@H](C)[C@H](NC(=O)[C@H](Cc3cc(F)cc(F)c3)NC(=O)Nc3ccc(OC(F)(F)F)cc3)C(=O)N3CCC[C@H]3C(=O)N3CCCC[C@H]3C(=O)N[C@@H](C)C(=O)N2C1	0.05 (≈ 0.0439 µg/mL)	0.05 (≈ 0.0439 µg/mL)			
